Drawing on patent US5001137A, “Pyridine compounds and pharmaceutical use thereof” (Yoshitomi Pharmaceutical Industries, Ltd., priority 1988, dated 1991), this text covers IC50 for 13 molecules.

SMILES strings stand for the structures.

T1 sequence (O70196 whole entry): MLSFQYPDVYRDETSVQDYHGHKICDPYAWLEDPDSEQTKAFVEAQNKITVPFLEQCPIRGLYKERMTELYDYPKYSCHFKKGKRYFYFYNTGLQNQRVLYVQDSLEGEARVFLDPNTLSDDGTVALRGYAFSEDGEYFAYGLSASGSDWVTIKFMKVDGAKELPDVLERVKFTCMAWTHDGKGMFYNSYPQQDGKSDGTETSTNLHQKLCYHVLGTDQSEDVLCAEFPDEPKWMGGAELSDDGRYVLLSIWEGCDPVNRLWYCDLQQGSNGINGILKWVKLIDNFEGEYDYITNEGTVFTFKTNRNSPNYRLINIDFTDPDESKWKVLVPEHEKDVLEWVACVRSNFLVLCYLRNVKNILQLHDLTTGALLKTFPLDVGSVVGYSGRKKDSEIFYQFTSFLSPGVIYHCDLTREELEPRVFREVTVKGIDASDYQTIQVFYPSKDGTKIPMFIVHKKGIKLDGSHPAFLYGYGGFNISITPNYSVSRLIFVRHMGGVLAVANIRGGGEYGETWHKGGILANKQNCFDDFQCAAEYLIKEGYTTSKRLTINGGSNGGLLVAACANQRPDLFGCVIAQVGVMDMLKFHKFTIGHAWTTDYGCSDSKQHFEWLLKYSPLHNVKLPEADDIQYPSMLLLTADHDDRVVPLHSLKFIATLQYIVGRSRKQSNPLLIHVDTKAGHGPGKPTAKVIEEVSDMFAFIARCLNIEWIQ

This assay has as its target T1, prolylendopeptidase (Rattus norvegicus, UniProt O70196).
T1 construct: using rat cerebral soluble fractions as the crude enzyme; from tissue; host or cells: rat cerebrum, soluble fraction (crude enzyme)
The assay can be described thus: Measurement of prolylendopeptidase-inhibitory activity (rat cerebral soluble fractions as crude enzyme; succinyl-glycyl-prolylmethylcoumarinamide substrate, fluorescence). Format: biochemical. As to conditions: rat cerebral soluble fraction, pH 7.0, 30° C., 15 minutes, 0.25% dimethylsulfoxide. As to the method: The prolylendopeptidase-inhibitory activity was estimated, using rat cerebral soluble fractions as the crude enzyme, in accordance with the methods by Yoshimoto et al (Biochem. Biophys. Acta., vol. 569, p 184 (1979)) and Kato et al. (J. Neurochem., vol. 35, p 527 (1980)). That is, a mixture containing 0.1 ml of 0.25 mM succinyl-glycyl-prolylmethylcoumarinamide, 1.15 ml of 0.1M Na/K phosphate buffer solution (pH 7.0), 0.1 ml of the crude enzyme and 0.1 ml of a solution of the compound of the present invention (at the final concentration of dimethylsulfoxide of 0.25%) was incubated at 30° C. for 15 minutes. Thereafter 1.5 ml of 0.1M acetate buffer solution (pH 4.2) was added to terminate the reaction. The fluorescence intensity (a) of the liberated methyl coumarinamide was measured by a fluorophotometer (Ex. 370 nm, Em. 440 nm). At the same time, the fluorescence intensity (b) of the control comprising a dimethylsulfoxide solution alone (at the final concentration of 0.25%) instead of the compound of the present invention was measured, and the prolylendopeptidase-inhibitory rate was calculated in accordance with the following formula and the concentration at which 50% of inhibition (IC50) can be attained was estimated.
Inhibition (%)={(b-a)/b)}×100
As to `CN(C)CCc1ccc(Oc2ncccc2C(=O)c2cccs2)cc1` [Example 1, 2-[4-(2-dimethylaminoethyl)phenoxy]-3-(2-thenoyl)pyridine], the IC50 (in general, the concentration that gives 50% inhibition) turned out to be 0.014 µM. The value for `CC(C)c1ccc(C(=O)c2cccs2)c(SCCCCCCN(C)C)n1` [Example 21, 2-(6-Dimethylaminohexylthio)-6-isopropyl-3-(2-thenoyl)pyridine] was 0.0055 µM. The value for `CC(CSCCCN(C)C)Sc1ncccc1C(=O)c1cccs1` (stereo not shown) [Example 20, 2-[2 (3-Dimethylaminopropylthio)-1-methylethylthio]-3-(2-thenoyl)pyridine] was 0.0045 µM; that for `CN(C)CCCOc1ncccc1C(=O)c1ccc(Cl)cc1` [Known Compound, 3-(4-chlorobenzoyl)-2-(3-dimethylaminepropoxy)pyridine, reference compound] was 1800 µM; that for `CN(C)CCCCCCSc1ncccc1C(=O)c1cccs1` [Example 5, 2-(6-dimethylaminohexylthio)-3-(2-thenoyl)pyridine] was 0.0095 µM. Then `CN(C)CCCOc1ccc(Oc2ncccc2C(=O)c2cccs2)cc1` [Example 4, 2-[4-(3-dimethylaminopropoxy)phenoxy]-3-(2-thenoyl)pyridine], with 0.06 µM; and `CCN(CC)CCCCCCSc1nc(C(C)C)ccc1C(=O)c1cccs1` [Example 22, 2-(6-Diethylaminohexylthio)-6-isopropyl-3-(2-thenoyl)pyridine], with 0.011 µM; and `CN(C)CCCCCCSCCSc1ncccc1C(=O)c1cccs1` [Example 19, 2-[2-(6-Dimethylaminohexylthio)ethylthio]-3-(2-thenoyl)pyridine], with 0.0045 µM. On to `CC(CSCCCCCCN(C)C)Sc1ncccc1C(=O)c1cccs1` (stereo not shown) [Example 17, 2-[2-(6-Dimethylaminohexylthio)-1-methylethylthio]-3-(2-thenoyl)pyridine], for which the half-maximal inhibitory concentration (IC50) came to 0.0045 µM.

`CN(C)CCCCCCOc1ccc(Oc2ncccc2C(=O)c2cccs2)cc1` [Example 2, 2-[4-(6-dimethylaminohexyloxy)phenoxy]-3-(2-thenoyl)pyridine] registered an IC50 of 0.03 µM.

`Cc1ccc(C(=O)c2cccs2)c(SCCCCCCN(C)C)n1` [Example 18, 2-(6-Dimethylaminohexylthio)-6-methyl-3-(2-thenoyl)pyridine] had an IC50 of 0.0095 µM.

As to `CN(C)CCCCCCOc1ncccc1C(=O)c1cccs1` [Example 13, 2-(6-dimethylaminohexyloxy)-3-(2-thenoyl)pyridine], half-maximal inhibition (IC50) was put at 0.055 µM.

Consider `CN(CCCCCCOc1ncccc1C(=O)c1cccs1)Cc1ccccc1` [Example 6, 2-[6-(N-benzyl-N-methylamino)hexyloxy]-3-(2-thenoyl)pyridine], for which the IC50 came to 0.078 µM.
